# In patent US12227490B2, “Cereblon binding compounds, compositions thereof, and methods of treatment therewith” (Celgene Corporation, priority 2020, dated 2025):
# Counter-ions that a name gives are not always drawn.
# Target: T1, AR (androgen receptor) protein in VCaP cells (Homo sapiens, UniProt P10275)
# T1 construct: endogenous in cells; host or cells: VCaP cells
# T1 sequence (P10275 1-920): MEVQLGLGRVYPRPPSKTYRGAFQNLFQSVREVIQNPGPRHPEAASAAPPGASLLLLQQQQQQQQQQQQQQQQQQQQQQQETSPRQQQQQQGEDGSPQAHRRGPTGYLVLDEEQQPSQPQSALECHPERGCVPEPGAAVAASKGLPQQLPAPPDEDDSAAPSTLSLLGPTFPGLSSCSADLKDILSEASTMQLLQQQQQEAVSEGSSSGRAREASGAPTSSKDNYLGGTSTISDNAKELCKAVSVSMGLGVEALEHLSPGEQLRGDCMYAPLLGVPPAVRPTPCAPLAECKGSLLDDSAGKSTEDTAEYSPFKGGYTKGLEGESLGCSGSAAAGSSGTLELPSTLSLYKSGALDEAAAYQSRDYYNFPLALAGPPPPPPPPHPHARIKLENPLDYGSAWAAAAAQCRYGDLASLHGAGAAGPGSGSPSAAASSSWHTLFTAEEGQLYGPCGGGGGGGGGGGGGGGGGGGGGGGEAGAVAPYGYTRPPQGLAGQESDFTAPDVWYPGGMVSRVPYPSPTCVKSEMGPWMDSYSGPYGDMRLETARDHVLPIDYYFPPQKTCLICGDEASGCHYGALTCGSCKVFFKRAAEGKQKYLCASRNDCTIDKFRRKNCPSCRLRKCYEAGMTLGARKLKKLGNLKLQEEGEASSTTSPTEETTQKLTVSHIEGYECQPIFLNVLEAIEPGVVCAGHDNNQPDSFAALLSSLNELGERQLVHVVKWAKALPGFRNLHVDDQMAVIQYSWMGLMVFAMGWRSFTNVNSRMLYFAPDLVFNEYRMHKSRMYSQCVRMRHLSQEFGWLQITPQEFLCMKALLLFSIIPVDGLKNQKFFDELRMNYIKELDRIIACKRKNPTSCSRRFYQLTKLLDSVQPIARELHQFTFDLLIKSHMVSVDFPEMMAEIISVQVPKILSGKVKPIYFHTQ
# Assay: VCAP AR Degradation Assay
# Format: cell-based
# Settings: 24 h, AR ELISA; for DC50: concentration of compound when AR level = 50% of DMSO control; for remaining activity at up to 5 µM: top concentration 5 μM, read-out: Y (lowest measured AR level normalized to DMSO control, AR degradation efficiency)
# Procedure: VCAP AR Degradation Assay. Test compounds were pre-dispensed into a Corning CellBind 96-well clear bottom plate (Cat #3300) using an acoustic dispenser to make a 10-point concentration series at 1:3 dilution for each compound. The final top concentration of each compound was 5 μM. DMSO at a final concentration of 0.1% was used as a control. VCaP cells cultured in DMEM with 8% fetal bovine serum (FBS) were seeded at 50K cells per well in a 200 μL volume into the compound plate and incubated at 37° C. in a CO2 incubator for 24 h. The medium was carefully removed from the cells and the plate was placed on ice. One hundred μL of ice-cold 1× cell lysis buffer from Cell Signaling Technologies (Cat #9803) was added to each well of the cells and the plate was incubated at 4° C. on a shaker for 1 h. Fifteen μL of cell lysate was used for AR ELISA detection using a PathScan Total Sandwich AR ELISA kit (Cell Signaling Technology, Cat #12580). AR levels in compound-treated wells were normalized to that of DMSO control and expressed as percent of control (PoC) (y). A Four Parameter Logistic Model (Sigmoidal Dose-Response Model) was used to determine the compound's DC50, and EC50, using the following equation: y=(A+((B−A)/(1+((C/x)^D)))) • A=YMin (lowest AR level normalized to DMSO control in response to compound treatment, as determined by curve fit) • B=YMax (maximum AR level as determined by curve fit) • C=EC50 • D=Hill Slope • x=compound concentration • EC50=the concentration of compound when y=(YMax−YMin)/2 • DC50=the concentration of the compound when y=50% of DMSO control (50% AR degradation) • y=AR protein level normalized to DMSO control
# The lowest measured AR level normalized to DMSO control in response to compound treatment, termed Y value, was used to characterize the compound-mediated AR degradation efficiency.
SMILES,DC50,remaining activity at up to 5 µM
"C[C@@H]1CN(CCCO[C@H]2CC[C@H](N3C(=S)N(c4ccc(C#N)c(Cl)c4)C(=O)C3(C)C)CC2)C[C@H](C)N1CC(=O)Nc1cccc2c(C3CCC(=O)NC3=O)nn(C)c12 (stereo partly drawn) [Cmpd 5, 2-((2R,6S)-4-(3-((trans-4-(3-(3-Chloro-4-cyanophenyl)-5,5-dimethyl-4-oxo-2-thioxoimidazolidin-1-yl)cyclohexyl)oxy)propyl)-2,6-dimethylpiperazin-1-yl)-N-(3-(2,6-dioxopiperidin-3-yl)-1-methyl-1H-indazol-7-yl)acetamide hydrochloride]",< 2 nM,30 to 50%
"C[C@@H]1CN(CCO[C@H]2CC[C@H](N3C(=S)N(c4cnc(C#N)c(C(F)(F)F)c4)C(=O)C3(C)C)CC2)C[C@H](C)N1CC(=O)Nc1cccc2c(C3CCC(=O)NC3=O)nn(C)c12 (stereo partly drawn) [Cmpd 4, 2-((2R,6S)-4-(2-((trans-4-(3-(6-Cyano-5-(trifluoromethyl)pyridin-3-yl)-5,5-dimethyl-4-oxo-2-thioxoimidazolidin-1-yl)cyclohexyl)oxy)ethyl)-2,6-dimethylpiperazin-1-yl)-N-(3-(2,6-dioxopiperidin-3-yl)-1-methyl-1H-indazol-7-yl)acetamide hydrochloride]",< 2 nM,25 to 30%
"Cn1nc(C2CCC(=O)NC2=O)c2cccc(NC(=O)CN3CCN(CCC[C@H]4CC[C@H](N5C(=S)N(c6ccc(C#N)c(C(F)(F)F)c6)C(=O)C5(C)C)CC4)C[C@@H]3C(F)(F)F)c21 (stereo partly drawn) [Cmpd 18, 2-((R)-4-(3-((trans)-4-(3-(4-Cyano-3-(trifluoromethyl)phenyl)-5,5-dimethyl-4-oxo-2-thioxoimidazolidin-1-yl)cyclohexyl)propyl)-2-(trifluoromethyl)piperazin-1-yl)-N-(3-(2,6-dioxopiperidin-3-yl)-1-methyl-1H-indazol-7-yl)acetamide]",5 to 20 nM,25 to 30%
"C[C@@H]1C[C@@H](CCO[C@H]2CC[C@H](N3C(=S)N(c4ccc(C#N)c(C(F)(F)F)c4)C(=O)C3(C)C)CC2)C[C@H](C)N1CC(=O)Nc1cccc2c(C3CCC(=O)NC3=O)nn(C)c12 (stereo partly drawn) [Cmpd 12, 2-((2R,4s,6S)-4-(2-((trans-4-(3-(4-Cyano-3-(trifluoromethyl)phenyl)-5,5-dimethyl-4-oxo-2-thioxoimidazolidin-1-yl)cyclohexyl)oxy)ethyl)-2,6-dimethylpiperidin-1-yl)-N-(3-(2,6-dioxopiperidin-3-yl)-1-methyl-1H-indazol-7-yl)acetamide hydrochloride]",2 to 5 nM,0 to 25%
"C[C@@H]1C[C@H](OCCO[C@H]2CC[C@H](N3C(=S)N(c4ccc(C#N)c(C(F)(F)F)c4)C(=O)C3(C)C)CC2)C[C@H](C)N1CC(=O)Nc1cccc2c(C3CCC(=O)NC3=O)nn(C)c12 (stereo partly drawn) [Cmpd 27, 2-((2R,4r,6S)-4-(2-(((trans)-4-(3-(4-Cyano-3-(trifluoromethyl)phenyl)-5,5-dimethyl-4-oxo-2-thioxoimidazolidin-1-yl)cyclohexyl)oxy)ethoxy)-2,6-dimethylpiperidin-1-yl)-N-(3-(2,6-dioxopiperidin-3-yl)-1-methyl-1H-indazol-7-yl)acetamide]",2 to 5 nM,25 to 30%
"Cn1nc(C2CCC(=O)NC2=O)c2cccc(NC(=O)CN3CCN(CCO[C@H]4CC[C@H](N5C(=S)N(c6ccc(C#N)c(C(F)(F)F)c6)C(=O)C5(C)C)CC4)C[C@@H]3C(F)(F)F)c21 (stereo partly drawn) [Cmpd 14, 2-((R)-4-(2-((trans-4-(3-(4-Cyano-3-(trifluoromethyl)phenyl)-5,5-dimethyl-4-oxo-2-thioxoimidazolidin-1-yl)cyclohexyl)oxy)ethyl)-2-(trifluoromethyl)piperazin-1-yl)-N-(3-(2,6-dioxopiperidin-3-yl)-1-methyl-1H-indazol-7-yl)acetamide hydrochloride]",< 2 nM,0 to 25%
"C[C@@H]1CN(CCC[C@H]2CC[C@H](N3C(=S)N(c4cnc(C#N)c(Cl)c4)C(=O)C3(C)C)CC2)C[C@H](C)N1CC(=O)Nc1cccc2c(C3CCC(=O)NC3=O)nn(C)c12 (stereo partly drawn) [Cmpd 10, 2-((2R,6S)-4-(3-(trans-4-(3-(5-Chloro-6-cyanopyridin-3-yl)-5,5-dimethyl-4-oxo-2-thioxoimidazolidin-1-yl)cyclohexyl)propyl)-2,6-dimethylpiperazin-1-yl)-N-(3-(2,6-dioxopiperidin-3-yl)-1-methyl-1H-indazol-7-yl)acetamide]",2 to 5 nM,30 to 50%

# Next, values leading:
DC50,remaining activity at up to 5 µM,SMILES
< 2 nM,0 to 25%,"C[C@@H]1C[C@@H](CCO[C@H]2CC[C@H](N3C(=S)N(c4cnc(C#N)c(C(F)(F)F)c4)C(=O)C3(C)C)CC2)C[C@H](C)N1CC(=O)Nc1cccc2c(C3CCC(=O)NC3=O)nn(C)c12 (stereo partly drawn) [Cmpd 16, 2-((2R,4s,6S)-4-(2-(((trans)-4-(3-(6-Cyano-5-(trifluoromethyl)pyridin-3-yl)-5,5-dimethyl-4-oxo-2-thioxoimidazolidin-1-yl)cyclohexyl)oxy)ethyl)-2,6-dimethylpiperidin-1-yl)-N-(3-(2,6-dioxopiperidin-3-yl)-1-methyl-1H-indazol-7-yl)acetamide]"
2 to 5 nM,0 to 25%,"C[C@@H]1C[C@H](OCC[C@H]2CC[C@H](N3C(=S)N(c4cnc(C#N)c(C(F)(F)F)c4)C(=O)C3(C)C)CC2)C[C@H](C)N1CC(=O)Nc1cccc2c(C3CCC(=O)NC3=O)nn(C)c12 (stereo partly drawn) [Cmpd 25, 2-((2R,4r,6S)-4-(2-((trans)-4-(3-(6-Cyano-5-(trifluoromethyl)pyridin-3-yl)-5,5-dimethyl-4-oxo-2-thioxoimidazolidin-1-yl)cyclohexyl)ethoxy)-2,6-dimethylpiperidin-1-yl)-N-(3-(2,6-dioxopiperidin-3-yl)-1-methyl-1H-indazol-7-yl)acetamide]"
< 2 nM,0 to 25%,"C[C@@H]1CN(CCCO[C@H]2CC[C@H](N3C(=S)N(c4cnc(C#N)c(C(F)(F)F)c4)C(=O)C3(C)C)CC2)C[C@H](C)N1CC(=O)Nc1cccc2c(C3CCC(=O)NC3=O)nn(C)c12 (stereo partly drawn) [Cmpd 7, 2-((2R,6S)-4-(3-((trans-4-(3-(6-Cyano-5-(trifluoromethyl)pyridin-3-yl)-5,5-dimethyl-4-oxo-2-thioxoimidazolidin-1-yl)cyclohexyl)oxy)propyl)-2,6-dimethylpiperazin-1-yl)-N-(3-(2,6-dioxopiperidin-3-yl)-1-methyl-1H-indazol-7-yl)acetamide hydrochloride]"
< 2 nM,0 to 25%,"C[C@@H]1C[C@H](OCCO[C@H]2CC[C@H](N3C(=S)N(c4cnc(C#N)c(C(F)(F)F)c4)C(=O)C3(C)C)CC2)C[C@H](C)N1CC(=O)Nc1cccc2c(C3CCC(=O)NC3=O)nn(C)c12 (stereo partly drawn) [Cmpd 28, 2-((2R,4r,6S)-4-(2-(((trans)-4-(3-(6-Cyano-5-(trifluoromethyl)pyridin-3-yl)-5,5-dimethyl-4-oxo-2-thioxoimidazolidin-1-yl)cyclohexyl)oxy)ethoxy)-2,6-dimethylpiperidin-1-yl)-N-(3-(2,6-dioxopiperidin-3-yl)-1-methyl-1H-indazol-7-yl)acetamide]"
